US11938143B2, “Compositions comprising 2′-deoxycytidine analogs and use thereof for the treatment of sickle cell disease, thalassemia, and cancers” (AkiraBio, Inc., priority 2021, dated 2024)

Experiments:
HbF = assay: F-cells and MFI by flow cytometry in sickle erythroid progenitors; format: cell-based, human; conditions: 48 hours
Protocol: FIGS. 8A-8D show representative data pertaining to the induction of AB1 HbF and inhibition of DNMT1 levels. Sickle erythroid progenitors were treated with the various agents shown for 48 hours. […] Shown in the graph is the mean±SEM for n=6 replicates. […] In FIGS. 8C-8D, “UT” indicates untreated cells; “HU” indicates hydroxyurea; “DEC” indicates decitabine; and “AB1” indicates disclosed compound AB1; the concentrations are indicated above the graph below the text indicating treatment compound.
Additional studies were carried out in primary sickle erythroid progenitors were next conducted. Using a previously established two-phase culture system, (See NRF2 mediates γ-globin gene regulation and fetal hemoglobin induction in human erythroid progenitors Xingguo Zhu et al., Experimental Hematology 2019; 70:85-96, incorporated by reference herein) AB1 was evaluated in progenitors cultured from peripheral blood mononuclear cells (PBMC) isolated from sickle cell subjects, at concentrations of 3, 6, and 10 nM. […] Cell viability was assessed with Trypan blue, and markers of erythroid differentiation were assessed by flow cytometry using antibodies for CD71 and CD235a, to evaluate changes in differentiation. […]
We assessed effects of AB1 at the transcription levels by RT-qPCR analysis. […]

[1] = system: sickle erythroid progenitors; assay: In vitro sickling of erythroid progenitors under overnight hypoxia (2% oxygen); format: cell-based, human; conditions: 48 hours treatment then overnight at 2% oxygen; AB1 3, 6, 10 nM; decitabine 200 nM; HU 75 μM
Protocol: FIGS. 9A-9B show representative data pertaining to various treatments and reduction of the level of sickle erythroid progenitors. After sickle progenitors were treated with the various drugs for 48 hours as indicated, and then incubated overnight in hypoxia conditions. […] In FIGS. 9A-9B, “UT” indicates untreated cells; “HU” indicates hydroxyurea; “DEC” indicates decitabine; and “AB1” indicates disclosed compound AB1; the concentrations are indicated, and concentration used is adjacent to the text indicating treatment compound.
We assessed effects of AB1 at the transcription levels by RT-qPCR analysis. […] Complementary studies at the protein levels were completed by flow cytometry and Western blot. […] To further support the notion that AB1 induces HbF expression, Western blot analysis was performed. […] It was observed that there was a dose-dependent 80% decrease in DNMT1 in sickle erythroid progenitors at the highest AB1 10 nM concentration (FIG. 8 D). […] After treatment for 48 hours, with the various drugs, the cells were incubated overnight at 2% oxygen, then fixed with formalin and the number of sickle versus non-sickle cells counted by phase contrast microscopy, a method previously published by the Pace (PI/PD) group (see Zhu, X., Li, B. & Pace, B. S. Haematologica 102, e285-e288, doi:10.3324/haematol.2016.160788 (2017)). […]

[2] = system: sickle erythroid progenitors; assay: Erythroid differentiation markers CD71 and CD235a by flow cytometry in sickle erythroid progenitors; format: cell-based, human; conditions: 48 hours
Protocol: (§1) FIGS. 6A-6B show representative data pertaining to primary sickle erythroid progenitors generated from peripheral blood mononuclear cells isolated from sickle cell patients using a two-phase liquid culture system. Cells treated for 48 hours were analyzed. […] Shown in the graph is the mean±SEM for n=6.
Additional studies were carried out in primary sickle erythroid progenitors were next conducted. Using a previously established two-phase culture system, (See NRF2 mediates γ-globin gene regulation and fetal hemoglobin induction in human erythroid progenitors Xingguo Zhu et al., Experimental Hematology 2019; 70:85-96, incorporated by reference herein) AB1 was evaluated in progenitors cultured from peripheral blood mononuclear cells (PBMC) isolated from sickle cell subjects, at concentrations of 3, 6, and 10 nM. PBMCs were isolated by Ficoll® Paque separation and cultured in IMDM supplemented with erythropoietin (2 IU), stem cell factor (10 ng/mL) and Interleukin 3 (10 ng/mL). On day seven, drug controls HU 75 μM, Dec 200 nM and AB1 (3, 6, and 10 nM) were added for 48 hours. Cell viability was assessed with Trypan blue, and markers of erythroid differentiation were assessed by flow cytometry using antibodies for CD71 and CD235a, to evaluate changes in differentiation. Proportions of F-cells and MFI were assayed by FACScan using staining with fluorescein isothiocyanate (FITC) anti-human HbF antibody (Bethyl). In our experience, primary erythroid progenitors are more sensitive to drug toxicity, so a lower dose range of AB1 was used. […] As a marker of early erythroid differentiation, CD71^+ progenitors were not affected by Dec or AB1 at any dose tested. In notable contrast, there was a 7-fold increase in CD71^+ cells mediated by HU (FIG. 6B).

[3] = Cell viability of primary sickle erythroid progenitors by Trypan blue; format: cell-based; conditions: human, HU 75 μM, read-out: drop in cell viability
Protocol: as §1
Additional studies were carried out in primary sickle erythroid progenitors were next conducted. Using a previously established two-phase culture system, (See NRF2 mediates γ-globin gene regulation and fetal hemoglobin induction in human erythroid progenitors Xingguo Zhu et al., Experimental Hematology 2019; 70:85-96, incorporated by reference herein) AB1 was evaluated in progenitors cultured from peripheral blood mononuclear cells (PBMC) isolated from sickle cell subjects, at concentrations of 3, 6, and 10 nM. PBMCs were isolated by Ficoll® Paque separation and cultured in IMDM supplemented with erythropoietin (2 IU), stem cell factor (10 ng/mL) and Interleukin 3 (10 ng/mL). On day seven, drug controls HU 75 μM, Dec 200 nM and AB1 (3, 6, and 10 nM) were added for 48 hours. Cell viability was assessed with Trypan blue, and markers of erythroid differentiation were assessed by flow cytometry using antibodies for CD71 and CD235a, to evaluate changes in differentiation. […]

| SMILES | F-cell levels (HbF; average of SCD patients, increase from 16%, all AB1 concentrations tested, Dec 200 nM) [%] | decrease in sickle cells [1] [%] | CD71+ progenitors (marker of early erythroid differentiation) ([2]; Dec 200 nM, AB1 at any dose tested (3, 6, 10 nM)) | level of CD235a+ cells (marker of terminal differentiation) ([2]; HU 75 μM, Dec 200 nM, AB1 3, 6, 10 nM) | F-cell induction (HbF; HU 75 μM, all patient data combined) | cytotoxicity at 48 h, 75 μM [3] [%] | increase in CD71+ cells ([2]; HU 75 μM) [fold] |
| --- | --- | --- | --- | --- | --- | --- | --- |
| Nc1ncn([C@H]2C[C@H](O)[C@@H](CO)O2)c(=O)n1 [Dec, 4-amino-1-(2-deoxy-b-D-erythro-pentofuranosyl)-1,3,5-triazin-2(1H)-one] | 22 | 80 | not affected | increased by all drugs except Dec |  |  |  |
| NC(=O)NO [HU, hydroxyurea] |  | 50 |  |  | not observed | 40 | 7 |
